Data as given in patent US6593342B1, “Pharmaceutical compositions comprising 2-quinolones” (Laboratoire L. Lafon, priority 1998, dated 2003).

Experiments:
MCF7 = assay: Clonogenic test (soft agar colony growth), MCF7; assay type: cell-based, human; conditions: 21 days, control = 100%, mean ± SEM
Excerpt: 1—Interaction (Stimulation or Inhibition of Proliferation) With the Generation of Clonogenic Cells (Clonogenic Test)
The test used is that described by Hamburger et al. (Science, 1977; 197, 461-463) and Salmon et al. (New England J. Med., 298, 1321-1327). A cell is considered clonogenic if it has the capacity to proliferate and to give rise to a cell colony. “Human tumor stem cells” are the cells which are the source of the neoplastic cells which constitute a given tumor. These tumor stem cells are responsible for the relapse processes which may be observed after surgical resection of primary tumors and are also responsible for the formation of metastases. In a tumor or a tumor cell line, these clonogenic stem cells differ from the other cells of the tumor or from the neoplastic cell line under consideration in that they conserve their capacity to proliferate in the absence of any solid support.
In this test, the tumor cells are cultured on a semi-solid support consisting of agar. […] In a tumor cell population, cultured on such a support, it is these clonogenic cells (associated with an unlimited number of cell divisions and whose proliferation is referred to by M. I. Dawson as “anchorage-independent [clonal] growth”) which are capable of growing. The percentage of these clonogenic cells in a tumor or a cell line ranges between 0.1% and 0.001%.
The influence of the compounds of formulae (I) and (Ia) on the growth of the cell colonies obtained by culturing, for example, the mammalian tumor lines MCF7 and MXT and the colorectal line HT-29 on the semi-liquid culture medium known as “soft agar” was measured. On such a medium, only the clonogenic cells referred to by M. I. Dawson as “anchorage-independent (clonal) cells” survive and grow. The growth of these cells in such a “non-adherent” mode bears witness to their degree of tumorigenicity. The inhibition of the growth of the size of a tumor in which a larger number of clonogenic cells has developed then becomes the evidence of reinforced cytotoxic activity.
Conversely, this test can also reveal that a compound is capable of inhibiting the generation/proliferation of clonogenic cells, thus making the tumor less able to grow and thus reducing the population of tumor cells.
The tumor cell lines studied are maintained in culture in 25 cm^2 falcon dishes. They are then trypsinized and the cells are fully dissociated from each other. The percentage of live cells is determined after staining with trypan blue. A cell suspension at a concentration of from 5·10^4 to 15·10^4 cells/ml (depending on the cell type under consideration) is prepared in a 0.3% agar solution. Next, 200 μl of this suspension are inoculated in Petri dishes 35 mm in diameter, in which are placed 3 ml of a base layer consisting of a 0.5% agar solution. The 200 μl of cell suspension are in turn covered with 1.8 ml of an upper layer consisting of a 0.3% agar solution. The dishes are then placed in an incubator at 37° C., 5% CO2 and 70% humidity until the treatment. This treatment is carried out about 1 to 2 hours after the inoculation. The test compounds are prepared at a concentration 100 times greater than the desired concentration and 50 μl of these treating solutions are placed over the upper layer of agar in the corresponding dishes. In the present study, the final concentration of the test products is 10^−5, 10^−7 and 10^−9 M. The dishes are then kept in an incubator for 21 days. On the 21st day the dishes are treated by depositing on the upper layer 100 μl of a 1 mg/ml solution of MTT (3-(4,5-dimethylthiazol-2-yl)-2,5-diphenyltetrazolinium bromide prepared with RPMI 1640 medium) for 3 h at 37° C. After this period, the cell colonies are fixed by adding 2 ml of formalin per dish. After fixing for 24 hours, the formalin is evaporated off and the number of stained cell colonies, thus consisting of metabolically active cells, and whose surface area is greater than 100 μm^2, is determined using an inverted microscope. […]

U-87MG = assay: MTT test, U-87MG; assay type: cell-based; conditions: Homo sapiens, 10^−5 M, 72 hours, control = 100%, mean ± SEM, read-out: average optical density (MTT), percentage relative to control
Method: (§1) The influence of the compounds of formulae (I) and (Ia) on non-clonogenic cells was evaluated with the aid of the MTT calorimetric test.
(§2) The principle of the MTT test is based on the mitochondrial reduction, by the metabolically active live cells, of the yellow-colored product MTT (3-(4,5-dimethylthiazol-2-yl)-2,5-diphenyltetrazolium bromide) to a blue-colored product, formazan. The amount of formazan thus obtained is directly proportional to the amount of live cells present in the culture well(s). This amount of formazan is measured by spectrophotometry.
(§3) The cell lines are maintained as a monolayer culture at 37° C. in stoppered culture dishes containing MEM 25 MM HEPES (Minimum Essential Medium) base medium. This medium is suited to the growth of a range of various mammalian diploid or primary cells. This medium is then supplemented with:
(§4) an amount of 5% of FCS (Foetal Calf Serum) decomplemented at 56° C. for 1 hour,
(§5) 0.6 mg/ml of L-glutamine,
(§6) 200 μg/ml of streptomycin,
(§7) The 12 human cancer cell lines which were used were obtained from the American Type Culture Collection (ATCC, Rockville, Md., USA). These 12 cell lines are:
(§8) U-373MG (code ATCC: HTB-17) and U-87MG (code ATCC: HTB-14) which are two glioblastomas,
(§9) Experimentally: 100 μl of a cell suspension containing 20 000 to 50 000 (depending on the cell type used) cells/ml of culture medium are inoculated in 96-well flat-bottomed multi-well plates and are incubated at 37° C., under an atmosphere comprising 5% CO2 and 70% humidity. After incubation for 24 hours, the culture medium is replaced with 100 μl of fresh medium containing either the various test compounds at concentrations ranging from 10^−5 to 10^−10 M or the solvent used to dissolve the test products (control condition). After incubation for 72 hours under the above conditions, the culture medium is replaced with 100 μl of a yellowish solution of MTT dissolved at a rate of 1 mg/ml in RPMI 1640. The microplates are reincubated for 3 hours at 37° C. and are then centrifuged for 10 minutes at 400×g. The yellowish solution of MTT is removed and the blue formazan crystals formed in the cell are dissolved in 100 μl of DMSO. The microplates are then shaken for 5 minutes. The intensity of the resulting blue coloration, and thus of the conversion of the yellow product MTT into blue formazan by the cells that are still alive at the end of the experiment, is quantified by spectrophotometry using a Dynatech Immunoassay System machine at wavelengths of 570 nm and 630 nm corresponding, respectively, to the maximum absorption wavelengths of formazan and to the background noise. Software incorporated in the spectrophotometer calculates the average optical density values and the standard deviation (SD) and standard error of mean (SEM) values.
(§10) By way of example, the results of the average optical density, expressed as a percentage relative to the average optical density measured under the control condition (set equal to 100%), obtained at a concentration of 10^−5 M on the 12 abovementioned tumor cell lines are given in Table II.

U-373MG = assay: MTT test, U-373MG; assay type: cell-based; conditions: Homo sapiens, U373 MG, 10^−5 M, 72 hours, control = 100%, mean ± SEM, read-out: average optical density (MTT), percentage relative to control
Method: as §1, §2, §3, §4, §5, §6, §7, §8, §9, §10

| Compound | average number of clones of clonogenic cells, percentage relative to control (MCF7; 10^−5 M) | average number of clones of clonogenic cells, percentage relative to control (MCF7; 10^−7 M) | average number of clones of clonogenic cells, percentage relative to control (MCF7; 10^−9 M) | viability at 10 µM (U-87MG) | viability at 10 µM (U-373MG) |
| --- | --- | --- | --- | --- | --- |
| COc1ccc(-c2cc3c(OC)cc(OC)cc3[nH]c2=O)cc1 [CRL8246, 5,7-Dimethoxy-3-(4-methoxyphenyl)-1,2-dihydro-2-quinolinone] | 126.8 ± 9.9% | 145.7 ± 8.9% | 139.1 ± 6.6% | 92.1 ± 1.5% | 96.6 ± 1.2% |
| COc1ccc(-c2cc3c(OC)cc(OC)cc3n(CCC#N)c2=O)cc1 [CRL8247, 3-[5,7-Dimethoxy-3-(4-methoxyphenyl)-2-oxo-1,2-dihydro-1-quinolinyl]propanenitrile] | 51.5 ± 2.8% | 81.9 ± 1.2% | 98.3 ± 4.2% | 59 ± 2.3% | 68.7 ± 2.8% |
| COc1ccc(-c2cc3c(OC)cc(OC)cc3n(CCc3nnn[nH]3)c2=O)cc1 [CRL8256, 1-[2-(1H-1,2,3,4-Tetrazol-5-yl)ethyl]-5,7-dimethoxy-3-(4-methoxyphenyl)-1,2-dihydro-2-quinolinone] | 51.6 ± 3.7% | 83.8 ± 3.4% | 97.9 ± 5.6% | 84.7 ± 1.7% | 76.1 ± 2.6% |
| CCN(CC)C(=O)CCn1c(=O)c(-c2ccc(OC)cc2)cc2c(OC)cc(OC)cc21 [CRL8283, N,N-Diethyl-3-[5,7-dimethoxy-3-(4-methoxy-phenyl)-2-oxo-1,2-dihydro-1-quinolinyl]propanamide] | 56.5 ± 4.9% | 106.2 ± 4.8% | 97.4 ± 5.8% | 69.9 ± 3.4% | 93.4 ± 1.5% |
| CCN(CC)C(=O)Cn1c(=O)c(-c2ccc(OC)cc2)cc2c(OC)cc(OC)cc21 [CRL8315, N,N-Diethyl-2-[5,7-dimethoxy-3-(4-methoxy-phenyl)-2-oxo-1,2-dihydro-1-quinolinyl]acetamide] | 119.6 ± 5.6% | 127 ± 8.8% | 157.1 ± 12.2% | 87.6 ± 4.5% | 68.9 ± 2.2% |
| COc1ccc(-c2cc3c(OC)cc(OC)cc3n(CCN(C)C)c2=O)cc1 [CRL8316, 1-[2-(Dimethylamino)ethyl]-5,7-dimethoxy-3-(4-methoxyphenyl)-1,2-dihydro-2-quinolinone] | 23.2 ± 1.8% | 84 ± 5% | 83.4 ± 4.6% | 74.3 ± 1.4% | 89.8 ± 2.9% |
